Each compound was assayed against T1, hCRTH2 (Homo sapiens, UniProt Q9Y5Y4) (assay: not given). Settings: Radioligand Binding Assay B; 0.7 nM [3H]PGD2, HEK-hCRTH2 membranes.
T1 sequence (Q9Y5Y4 1-395): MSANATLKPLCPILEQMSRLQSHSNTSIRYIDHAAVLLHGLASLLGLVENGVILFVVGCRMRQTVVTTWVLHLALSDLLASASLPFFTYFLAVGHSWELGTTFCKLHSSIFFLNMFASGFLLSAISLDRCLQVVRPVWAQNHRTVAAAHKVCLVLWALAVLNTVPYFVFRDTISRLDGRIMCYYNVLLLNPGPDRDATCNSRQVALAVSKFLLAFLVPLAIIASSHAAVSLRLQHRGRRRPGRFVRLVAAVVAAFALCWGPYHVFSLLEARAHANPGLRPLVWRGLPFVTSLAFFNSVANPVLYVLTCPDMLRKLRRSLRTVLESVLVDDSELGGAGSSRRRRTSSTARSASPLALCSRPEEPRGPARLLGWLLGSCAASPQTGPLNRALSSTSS
Set-up: expressed in transfected cells; host or cells: HEK (human embryonic kidney) cells expressing hCRTH2
Experimental: The filters were then washed with 4 mL of the same buffer and residual radioligand bound to the filter was determined by liquid scintillation counting following equilibration in 25 μl Ultima Gold F™ (Unifilter) (Packard).

SMILES | Ki [nM]
COC(=O)CCC(=O)N(C1CC1)C1c2ccc(F)cc2N(C(=O)c2ccccc2)C2CCCC21 (racemic) [16C, Methyl 4-{cyclopropyl[cis,cis-6-fluoro-4-(phenylcarbonyl)-2,3,3a,4,9,9a-hexahydro-1H-cyclopenta[b]quinolin-9-yl]amino}-4-oxobutanoate] | 140
O=C(O)CCC(=O)N(C1CC1)C1c2ccccc2N(C(=O)c2ccc(Cl)cc2)C2CCCC21 (racemic) [14K, 4-[{cis,cis-4-[(4-chlorophenyl)carbonyl]-2,3,3a,4,9,9a-hexahydro-1H-cyclopenta[b]quinolin-9-yl}(cyclopropyl)amino]-4-oxobutanoic acid] | 18.4
CC(CC(=O)N(C1CC1)C1c2ccccc2N(C(=O)OCc2ccccc2)C2CCCC21)C(=O)O (racemic) [compound 10, 4-[{cis,cis-4-[(Benzyloxy)carbonyl]-2,3,3a,4,9,9a-hexahydro-1H-cyclopenta[b]quinolin-9-yl}(cyclopropyl)amino]-2-methyl-4-oxobutanoic acid] | 514
O=C(O)CCC(=O)N(C1CC1)C1c2ccccc2N(C(=O)c2ccsc2)C2CCCC21 (racemic) [14E, 4-{cyclopropyl[cis,cis-4-(thiophen-3-ylcarbonyl)-2,3,3a,4,9,9a-hexahydro-1H-cyclopenta[b]quinolin-9-yl]amino}-4-oxobutanoic acid] | 9.9
O=C(O)CCC(=O)N(C1CC1)C1c2ccccc2N(C(=O)Oc2ccccc2)C2CCCC21 (racemic) [21K, 4-{cyclopropyl[cis, cis-4-(phenoxycarbonyl)-2,3,3a,4,9,9a-hexahydro-1H-cyclopenta[b]quinolin-9-yl]amino}-4-oxobutanoic acid] | 905

Same assay, conditions: Radioligand Binding Assay B; Table B, rated A-D

SMILES | Ki [nM]
COC(=O)CCC(=O)N(C1CC1)C1c2ccc(F)cc2N(C(=O)c2ccccc2)C2CCCC21 (racemic) [16C, Methyl 4-{cyclopropyl[cis,cis-6-fluoro-4-(phenylcarbonyl)-2,3,3a,4,9,9a-hexahydro-1H-cyclopenta[b]quinolin-9-yl]amino}-4-oxobutanoate] | 20.1 to 200
COC(=O)CCC(=O)N(C1CC1)C1c2ccc(F)cc2N(C(=O)OCc2ccccc2)C2CCCC21 (racemic) [compound 15, Benzyl cis,cis-9-[cyclopropyl(4-methoxy-4-oxobutanoyl)amino]-6-fluoro-1,2,3,3a,9,9a-hexahydro-4H-cyclopenta[b]quinoline-4-carboxylate] | 20.1 to 200
COC(=O)CCC(=O)N(C1CC1)C1c2ccc(F)cc2N(C(=O)c2cccnc2)C2CCCC21 (racemic) [16A, Methyl 4-{cyclopropyl[cis,cis-6-fluoro-4-(pyridin-3-ylcarbonyl)-2,3,3a,4,9,9a-hexahydro-1H-cyclopenta[b]quinolin-9-yl]amino}-4-oxobutanoate] | 201 to 7500
O=C(O)CCC(=O)N(C1CC1)C1c2ccccc2N(C(=O)NCc2ccccc2)C2CCCC21 (racemic) [23C, 4-{[cis, cis-4-(benzylcarbamoyl)-2,3,3a,4,9,9a-hexahydro-1H-cyclopenta[b]quinolin-9-yl](cyclopropyl)amino}-4-oxobutanoic acid] | 20.1 to 200
O=C(O)CCC(=O)N(C1CC1)C1c2ccccc2N(C(=O)c2ccc(Cl)cc2)C2CCCC21 (racemic) [14K, 4-[{cis,cis-4-[(4-chlorophenyl)carbonyl]-2,3,3a,4,9,9a-hexahydro-1H-cyclopenta[b]quinolin-9-yl}(cyclopropyl)amino]-4-oxobutanoic acid] | 5.1 to 20
COc1ccc(C(=O)N2c3ccccc3C(N(C(=O)CCC(=O)O)C3CC3)C3CCCC32)cc1 (racemic) [14L, 4-(cyclopropyl{cis,cis-4-[(4-methoxyphenyl)carbonyl]-2,3,3a,4,9,9a-hexahydro-1H-cyclopenta[b]quinolin-9-yl}amino)-4-oxobutanoic acid] | 20.1 to 200
CC(CC(=O)N(C1CC1)C1c2ccccc2N(C(=O)OCc2ccccc2)C2CCCC21)C(=O)O (racemic) [compound 10, 4-[{cis,cis-4-[(Benzyloxy)carbonyl]-2,3,3a,4,9,9a-hexahydro-1H-cyclopenta[b]quinolin-9-yl}(cyclopropyl)amino]-2-methyl-4-oxobutanoic acid] | 201 to 7500
O=C(O)CCC(=O)N(c1ccccc1)C1c2ccccc2N(C(=O)c2ccccc2)C2CCCC21 (racemic) [12E, 4-oxo-4-{phenyl[cis,cis-4-(phenylcarbonyl)-2,3,3a,4,9,9a-hexahydro-1H-cyclopenta[b]quinolin-9-yl]amino}butanoic acid] | 5.1 to 20
O=C(O)CCC(=O)N(C1CC1)C1c2ccccc2N(C(=O)c2ccsc2)C2CCCC21 (racemic) [14E, 4-{cyclopropyl[cis,cis-4-(thiophen-3-ylcarbonyl)-2,3,3a,4,9,9a-hexahydro-1H-cyclopenta[b]quinolin-9-yl]amino}-4-oxobutanoic acid] | 5.1 to 20
CCN(c1nc(C(=O)O)cs1)[C@@H]1c2ccccc2N(C(=O)OCc2ccccc2)[C@@H]2CCC[C@H]12 (racemic) [compound 39, 2-[{cis,cis-4-[(Benzyloxy)carbonyl]-2,3,3a,4,9,9a-hexahydro-1H-cyclopenta[b]quinolin-9-yl}(ethyl)amino]-1,3-thiazole-4-carboxylic acid] | 20.1 to 200
O=C(O)CCC(=O)N(C1CC1)C1c2ccccc2N(c2nnc(-c3ccccc3)o2)C2CCCC21 (racemic) [36A, racemic 4-{cyclopropyl[cis, cis-4-(5-phenyl-1,3,4-oxadiazol-2-yl)-2,3,3a,4,9,9a-hexahydro-1H-cyclopenta[b]quinolin-9-yl]amino}-4-oxobutanoic acid] | 20.1 to 200
CC(C)(C)COC(=O)N1c2ccccc2C(N(C(=O)CCC(=O)O)C2CC2)C2CCCC21 (racemic) [21H, 4-(cyclopropyl{cis, cis-4-[(2,2-dimethylpropoxy)carbonyl]-2,3,3a,4,9,9a-hexahydro-1H-cyclopenta[b]quinolin-9-yl}amino)-4-oxobutanoic acid] | 201 to 7500
O=C(O)CCC(=O)N(C1CC1)C1c2ccccc2N(C(=O)Oc2ccccc2)C2CCCC21 (racemic) [21K, 4-{cyclopropyl[cis, cis-4-(phenoxycarbonyl)-2,3,3a,4,9,9a-hexahydro-1H-cyclopenta[b]quinolin-9-yl]amino}-4-oxobutanoic acid] | 201 to 7500
O=C(O)COC(=O)N(C1CC1)[C@@H]1c2ccccc2N(C(=O)c2ccccc2)[C@@H]2CCC[C@@H]21 (racemic) [compound 30, ({Cyclopropyl[cis,cis-4-(phenylcarbonyl)-2,3,3a,4,9,9a-hexahydro-1H-cyclopenta[b]quinolin-9-yl]carbamoyl}oxy)acetic acid] | 5.1 to 20
O=C(O)CCC(=O)N(C1CC1)[C@@H]1c2ccccc2N(C(=O)c2ccccc2)[C@@H]2CCC[C@@H]21 (racemic) [compound 14, 4-[[cis,cis-4-Benzoyl-2,3,3a,4,9,9a-hexahydro-1H-cyclopenta[b]quinolin-9-yl](cyclopropyl)amino]-4-oxobutanoic acid] | 5.1 to 20
COC(=O)CCC(=O)N(C1CC1)C1c2ccccc2N(C(=O)c2ccc(OC(F)(F)F)cc2)C2CCC21 (racemic) [compound 26, Methyl 4-{cyclopropyl[cis,cis-3-{[4-(trifluoromethoxy)phenyl]carbonyl}-1,2,2a,3,8,8a-hexahydrocyclobuta[b]quinolin-8-yl]amino}-4-oxobutanoate] | 20.1 to 200
COC(=O)CCC(=O)N(C1CC1)C1c2ccccc2N(C(=O)c2ccsc2)C2CCCC21 (racemic) [14o, methyl 4-{cyclopropyl[cis,cis-4-(thiophen-3-ylcarbonyl)-2,3,3a,4,9,9a-hexahydro-1H-cyclopenta[b]quinolin-9-yl]amino}-4-oxobutanoate] | 201 to 7500
O=C(O)CCC(=O)N(C1CC1)C1c2ccccc2N(C(=O)c2cccc(N3CCOCC3)c2)C2CCCC21 (racemic) [14H, 4-(cyclopropyl{cis,cis-4-[(3-morpholin-4-ylphenyl)carbonyl]-2,3,3a,4,9,9a-hexahydro-1H-cyclopenta[b]quinolin-9-yl}amino)-4-oxobutanoic acid] | 20.1 to 200

What follows are compounds tested against T1, hCRTH2 (assay: biochemical). Settings: Ki, Radioligand Binding Assay A; 3.0 nM [3H]PGD2, HEK-hCRTH2 membranes.
Experimental: Competing ligands were diluted in dimethylsulfoxide (Me2SO) that was kept constant at 1% (v/v) of the final incubation volume. The reaction was initiated by the addition of 8-20 g of membrane protein prepared from a human embryonic kidney (HEK)-hCRTH2 cell line. Total and non-specific binding were determined in the absence and the presence of 10 μM PGD2, respectively. Under these conditions, specific binding (total minus non-specific) of the radioligand to the receptor reached equilibrium within 50 min and was stable up to 180 min. The reaction was routinely conducted for 60 min at room temperature and terminated by rapid filtration through prewetted (0.3% polyethyleneimine) 96-well printed Filtermate™ (Wallac) using a Tomtec® harvester (Hamden, Conn.). After washing with cold buffer, the filter was dried for 2 minutes in microwave, and Meltilex Scintillator sheet (Wallac) was melted on for 2 min.

SMILES | Ki [nM]
O=C(O)CCC(=O)N(C1CCC1)[C@@H]1c2ccccc2N(C(=O)c2cccc(OC(F)(F)F)c2)[C@@H]2CCC[C@@H]21 (single isomer, unassigned) [17DA, 4-[cyclobutyl[cis,cis-2,3,3a,4,9,9a-hexahydro-4-[3-(trifluoromethoxy)benzoyl]-1H-cyclopenta[b]quinolin-9-yl]amino]-4-oxobutanoic acid] | 34.2
CCN(C(=O)CCC(=O)O)C1c2ccccc2N(C(=O)OCc2cc(F)cc(F)c2)C2CCCC12 (single isomer, unassigned) [22A, 4-[(3,5-difluorophenyl)methyl] cis, cis-[(3-carboxy-1-oxopropyl)ethylamino]-1,2,3,3a,9,9a-hexahydro-4H-cyclopenta[b]quinoline-4-carboxylate] | 1080
O=C(O)CCCN(C1CC1)C1c2ccccc2N(C(=O)OCc2ccccc2)C2CCCC21 (single isomer, unassigned) [compound 60, 4-(phenylmethyl) cis, cis-[(3-carboxypropyl)cyclopropylamino]-1,2,3,3a,9,9a-hexahydro-4H-cyclopenta[b]quinoline-4-carboxylate] | 21.2
O=C(O)CCC(=O)N(C1CC1)C1c2ccc(Cl)cc2N(C(=O)OCc2ccccc2)C2CCCC21 (single isomer, unassigned) [9A, 4-(phenylmethyl) cis,cis-[(3-carboxy-1-oxopropyl)cyclopropylamino]-6-chloro-1,2,3,3a,9,9a-hexahydro-4H-cyclopenta[b]quinoline-4-carboxylate] | 4.7
O=C(O)CCC(=O)N(C1CC1)C1c2ccccc2N(C(=O)c2ccc(-c3cncs3)cc2)C2CCCC21 (racemic) [18o, 4-[cyclopropyl[cis,cis-2,3,3a,4,9,9a-hexahydro-4-[4-(5-thiazolyl)benzoyl]-1H-cyclopenta[b]quinolin-9-yl]amino]-4-oxobutanoic acid] | 9.8
O=C(O)CCC(=O)N(C1CC1)C1c2cc(F)ccc2N(C(=O)c2ccc(OC(F)(F)F)cc2)C2CCCC21 (single isomer, unassigned) [compound 134, 4-[cyclopropyl[cis, cis-7-fluoro-2,3,3a,4,9,9a-hexahydro-4-[4-(trifluoromethoxy)benzoyl]-1H-cyclopenta[b]quinolin-9-yl]amino]-4-oxobutanoic acid] | 236
O=C(O)COC(=O)N(C1CC1)C1c2ccccc2N(c2nnc(Cc3ccc(OC(F)(F)F)cc3)o2)C2CCCC21 (single isomer, unassigned) [38G, [[[cyclopropyl[cis,cis-2,3,3a,4,9,9a-hexahydro-4-[5-[[4-(trifluoromethoxy)phenyl]methyl]-1,3,4-oxadiazol-2-yl]-1H-cyclopenta[b]quinoline-9-yl]amino]carbonyl]oxy]acetic acid] | 638

Source: patent US8592383B2, “Cycloalkyl-fused tetrahydroquinolines as CRTH2 receptor modulators” (Merck Sharp & Dohme Corp., priority 2011, dated 2013)
